The record followed here is ChEMBL document CHEMBL1201862, “PubChem BioAssay data set” (2004).

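Following 48 hours of exposure in 96-well plates, responses at five concentrations were used to interpolate endpoints linearly. GI50 marks 50% less growth.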 Calls of active or inactive are those of the source. No stated cut-off is given here; in the data, active = GI50 up to about 1.1 µM and inactive = higher.

Test systems include PC-3; RPMI-8226; TK-10; HOP-92; K562; MCF7; Malme-3M; ACHN; UACC-257; SF-295; BT-549; HOP-62; SNB-75; A549; 786-0; SK-MEL-2; NCI-H522; SK-MEL-28; OVCAR-4; MDA-MB-435.
Holding throughout (test): NCI anticancer screen, dose series, 48 h

In the case of `COc1c(OC(C)=O)c(OC(C)=O)cc2c1-c1ccc(SC)c(=O)cc1C(NC(C)=O)CC2` (stereo not given), the GI50 in the assay on PC-3 is 2.14 µM (inactive); with RPMI-8226, 0.416 µM (active); in the assay with TK-10, 15.3 µM (inactive); with HOP-92, 0.425 µM (active); with K562, 0.316 µM (active); in the assay on MCF7, 0.124 µM (active). The GI50 was 0.468 µM (active) in the assay with Malme-3M; 11.6 µM (inactive) in the assay with ACHN; 3.72 µM (inactive) in the assay with UACC-257; 1.45 µM (inactive) with SF-295; 0.201 µM (active) with BT-549; 0.681 µM (active) with HOP-62. The GI50 in the assay with SNB-75 was 0.299 µM (active); in the assay with A549, 4.19 µM (inactive); in the assay on 786-0, 1.69 µM (inactive); with SK-MEL-2, 0.31 µM (active); in the assay on NCI-H522, 0.204 µM (active); with SK-MEL-28, 0.342 µM (active). Moreover, the GI50 is 26 µM (inactive) in the assay with OVCAR-4 and 0.179 µM (active) in the assay with MDA-MB-435.

In the case of `O=c1[nH]c(=O)n(C2CC(O)C(CO)O2)c2nc3ccc4cc5ccccc5cc4c3nc12` (stereo not given), the GI50 in the assay on PC-3, in the assay with RPMI-8226, in the assay on TK-10, with HOP-92, with K562 and with MCF7 was > 100 µM (inactive) each time. Besides, the GI50 with Malme-3M, in the assay on ACHN, in the assay with UACC-257, in the assay on SF-295, in the assay with BT-549 and with HOP-62 was > 100 µM (inactive) in each case. Besides, the GI50 in the assay with SNB-75, with A549, with 786-0, in the assay on SK-MEL-2, in the assay with NCI-H522 and in the assay with SK-MEL-28 was > 100 µM (inactive) in each case. The GI50 with OVCAR-4 is 80.7 µM (inactive); with MDA-MB-435, > 100 µM (inactive).

Take `COP(=O)(/C=C/C(NC(=O)C(Cl)(Cl)Cl)c1ccccc1)OC` (stereo not given): the GI50 in the assay with PC-3, in the assay on RPMI-8226, in the assay on TK-10, with HOP-92, in the assay on K562 and in the assay on MCF7 was > 100 µM (inactive) throughout. For the same compound, the GI50 in the assay with Malme-3M, in the assay on ACHN, in the assay on UACC-257, with SF-295, in the assay with BT-549 and in the assay with HOP-62 was > 100 µM (inactive) each time. Besides, the GI50 in the assay on SNB-75, with A549, in the assay on 786-0, in the assay with SK-MEL-2, with NCI-H522 and in the assay with SK-MEL-28 was > 100 µM (inactive) in each case. Also, the GI50 in the assay on OVCAR-4 and in the assay on MDA-MB-435 was > 100 µM (inactive) in each case.

For `O=C(O)CCNc1[nH]cnc2ncnc1-2`, the GI50 with PC-3, in the assay with RPMI-8226, in the assay with TK-10, with HOP-92, in the assay on K562 and in the assay on MCF7 was > 100 µM (inactive) throughout. In addition, the GI50 in the assay with Malme-3M, in the assay on ACHN, in the assay with UACC-257, in the assay on SF-295, in the assay with BT-549 and in the assay on HOP-62 was > 100 µM (inactive) throughout. Moreover, the GI50 in the assay on SNB-75, in the assay on A549, in the assay on 786-0, in the assay with SK-MEL-2, with NCI-H522 and in the assay with SK-MEL-28 was > 100 µM (inactive) each time. Also, the GI50 in the assay with OVCAR-4 and in the assay on MDA-MB-435 was > 100 µM (inactive) each time.
